The record followed here is ChEMBL document CHEMBL1126737, “Toward a novel metal-based chemotherapy against tropical diseases. 1. Enhancement of the efficacy of clotrimazole against Trypanosoma cruzi by complexation to ruthenium in RuCl2(clotrimazole)2” (J Med Chem, 1993).

A short description of test [1]: Effective concentration that inhibits growth of Trypanosoma cruzi by 50% was reported. The test is classed as functional.
Another test relates to Vero. Kind of test: Effective concentration to inhibit the proliferation of amastigote form of the parasite grown on mammalian (Vero) cells. The class given is functional, cell-based, Chlorocebus sabaeus.
The test system of another test is Trypanosoma cruzi. Kind of test: Inhibition of the proliferation of epimastigote form of Trypanosoma cruzi was determined at 10 e-5 M. The class given is functional.

Broadly, the EC50 is the concentration needed to bring the measured effect to its halfway point. Lower therefore signals greater potency. Take `Clc1ccccc1C(c1ccccc1)(c1ccccc1)n1ccnc1` [CLOTRIMAZOLE]: the EC50 in test [1] is 3 µM. Regarding “RuCl2(clotrimazole)2 [listing 1 of 2 here]”, the figures for the EC50 (in test [1]; in the test with Vero) were 0.1 µM and 0.005 µM, respectively.

By inhibition is commonly meant the drop in the measured response relative to a control, in per cent. Low readings indicate little suppression, high ones strong suppression. Compound “RuCl2(clotrimazole)2 [listing 2 of 2 here]” yielded an inhibition in the test on Trypanosoma cruzi of 90%.
